13 compounds from patent US8680012B2, “4-phenyl-pyrane-3,5-diones,4-phenyl-thiopyrane-3,6-diones and cyclohexanetriones as novel herbicides” (Syngenta Crop Protection LLC, priority 2006, dated 2014) can be followed below.

Holding throughout (format): in vivo
For assay [1], the system named is Alopecurus myosuroides (ALOMY). The assay is described as follows: Example B pre-emergence herbicidal activity, glasshouse pot test. The settings on record: 312 h, rate 250 g/ha, evaluated after 13 days, read-out: Pre-emergence activity ALOMY (100=total damage to plant; 0=no damage to plant). The gist of the method: (§1)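 Herbicidal effect was judged 13 days after treatment as percent-style damage (100 = total kill). Seeds in standard soil had grown 1 day (pre) or 8 days (post) in a 24/16 °C, 14 h light, 65% humidity glasshouse before spraying with compound in acetone/water (50:50) containing 0.5% Tween 20.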

Assay [2] concerns Amaranthus retroflexus (AMARE). Described as above. The settings on record: 312 h, rate 250 g/ha, evaluated after 13 days, read-out: Pre-emergence activity AMARE (100=total damage to plant; 0=no damage to plant). The gist of the method: as §1
Assay [3] concerns Avena fatua (AVEFA). The description is as above. The settings on record: 312 h, rate 250 g/ha, evaluated after 13 days, read-out: Pre-emergence activity AVEFA (100=total damage to plant; 0=no damage to plant). The gist of the method:
as §1

In assay [4] the test system is Echinochloa crus-galli (ECHCG). The description is as above. The settings on record: 312 h, rate 250 g/ha, evaluated after 13 days, read-out: Pre-emergence activity ECHCG (100=total damage to plant; 0=no damage to plant). The gist of the method:
as §1

Assay [5] concerns Setaria faberi (SETFA). Described as above. The settings on record: 312 h, rate 250 g/ha, evaluated after 13 days, read-out: Pre-emergence activity SETFA (100=total damage to plant; 0=no damage to plant). The essentials:
as §1

In assay [6] the test system is Alopecurus myosuroides (ALOMY). The assay is described as follows: Example B post-emergence herbicidal activity, glasshouse pot test. The settings on record: 312 h, rate 250 g/ha, evaluated after 13 days, read-out: Post-emergence activity ALOMY (100=total damage to plant; 0=no damage to plant). The essentials: as §1
In assay [7] the test system is Amaranthus retroflexus (AMARE). The description is as above. The settings on record: 312 h, rate 250 g/ha, evaluated after 13 days, read-out: Post-emergence activity AMARE (100=total damage to plant; 0=no damage to plant). The essentials: as §1
Assay [8] relates to Avena fatua (AVEFA). Described as above. The settings on record: 312 h, rate 250 g/ha, evaluated after 13 days, read-out: Post-emergence activity AVEFA (100=total damage to plant; 0=no damage to plant). The essentials:
as §1

Assay [9] deals with Echinochloa crus-galli (ECHCG). Described as above. The settings on record: 312 h, rate 250 g/ha, evaluated after 13 days, read-out: Post-emergence activity ECHCG (100=total damage to plant; 0=no damage to plant). The gist of the method: as §1
For assay [10], the system named is Setaria faberi (SETFA). The assay is described as above. Particulars: 312 h, rate 250 g/ha, evaluated after 13 days, read-out: Post-emergence activity SETFA (100=total damage to plant; 0=no damage to plant). The essentials: as §1

Turning to `CCc1ccc(-c2cc(F)c(Cl)c(F)c2)cc1C1=C(O)C(C)(C)OC(C)(C)C1=O` [Compound A-152], the pest or weed control at 250 g/ha in assay [1] was determined as 70%; in assay [2] it was 0%; in the assay with Avena fatua (AVEFA) [3], 90%; in [4], 100%; in the assay with Setaria faberi (SETFA) [5], 100%; in assay [6] it was 100%. The pest or weed control at 250 g/ha in assay [7] came to 0%; in the assay with Avena fatua (AVEFA) [8] it was 100%; in [9], 100%; in the assay on Setaria faberi (SETFA) [10], 100%.
Turning to `CCC(=O)OC1=C(c2cc(-c3ccc(Cl)cc3Cl)ccc2CC)C(=O)C(C)(C)OC1(C)C` [Compound D-25], the pest or weed control at 250 g/ha in assay [1] worked out at 20%; in [2], 0%; in the assay with Avena fatua (AVEFA) [3] it was 0%; in [4], 90%; in the assay on Setaria faberi (SETFA) [5], 90%; in [6] it was 0%. The pest or weed control at 250 g/ha in assay [7] amounted to 0%; in the assay on Avena fatua (AVEFA) [8] it was 20%; in [9], 90%; in the assay with Setaria faberi (SETFA) [10], 90%.
Turning to `CCc1ccc(-c2ccc(Cl)cc2Cl)cc1C1=C(O)C(C)(C)OC(C)C1=O` (single isomer, unassigned) [Compound A-71], the pest or weed control at 250 g/ha worked out at 40% in assay [1]; 0% in assay [2]; 20% in the assay on Avena fatua (AVEFA) [3]; 80% in assay [4]; 100% in the assay on Setaria faberi (SETFA) [5]; 30% in [6]. The pest or weed control at 250 g/ha in assay [7] was found to be 100%; with Avena fatua (AVEFA) [8] it was 30%; in [9] it was 100%; in the assay on Setaria faberi (SETFA) [10] it was 100%.
In the case of `Cc1ccc(-c2cnn(Cc3ccccc3)c2)cc1C1=C(O)C(C)(C)OC(C)(C)C1=O` [Compound A-143], the pest or weed control at 250 g/ha is 20% in assay [1]; 0% in assay [2]; 0% with Avena fatua (AVEFA) [3]; 0% in [4]; 70% in the assay on Setaria faberi (SETFA) [5]; 90% in assay [6]. Further, the pest or weed control at 250 g/ha in assay [7] was 0%; with Avena fatua (AVEFA) [8], 80%; in assay [9], 100%; with Setaria faberi (SETFA) [10], 90%.
With `CCc1ccc(-c2ccc(Cl)cn2)cc1C1=C(O)C(C)(C)OC(C)(C)C1=O` [Compound A-150], the pest or weed control at 250 g/ha in [1] is 90%; in assay [2] it was 0%; in the assay on Avena fatua (AVEFA) [3], 40%; in assay [4] it was 100%; with Setaria faberi (SETFA) [5] it was 100%; in [6], 90%. In addition, the pest or weed control at 250 g/ha was found to be 0% in assay [7], 80% with Avena fatua (AVEFA) [8], 100% in assay [9] and 100% in the assay with Setaria faberi (SETFA) [10].
With `CC1(C)OC(C)(C)C(O)=C(c2cc(-c3ccc(Cl)cc3)ccc2Br)C1=O` [Compound A-149], the pest or weed control at 250 g/ha in assay [1] amounted to 60%; in assay [2], 0%; with Avena fatua (AVEFA) [3] it was 30%; in [4], 100%; with Setaria faberi (SETFA) [5], 90%; in assay [6], 90%. For the same compound, the pest or weed control at 250 g/ha was 20% in assay [7], 70% in the assay with Avena fatua (AVEFA) [8], 100% in [9] and 100% with Setaria faberi (SETFA) [10].
Take `CCc1ccc(-c2ccc(Cl)cc2Cl)cc1C1=C(O)[C@]2(C)O[C@@H](CC2COC)C1=O` (stereo partly shown) [Compound A-133]: the pest or weed control at 250 g/ha in [1] came out at 10%; in assay [2], 0%; in the assay on Avena fatua (AVEFA) [3] it was 70%; in [4] it was 0%; with Setaria faberi (SETFA) [5] it was 80%; in assay [6], 20%. For the same compound, the pest or weed control at 250 g/ha in assay [7] is 70%; in the assay on Avena fatua (AVEFA) [8], 80%; in [9], 100%; with Setaria faberi (SETFA) [10], 100%.
As to `CCc1ccc(-c2ccc(Cl)cc2C)cc1C1=C(O)C(C)(C)OC(C)(C)C1=O` [Compound A-64], the pest or weed control at 250 g/ha in assay [1] stood at 0%; in assay [2], 0%; in the assay on Avena fatua (AVEFA) [3] it was 20%; in [4], 40%; in the assay with Setaria faberi (SETFA) [5] it was 40%; in assay [6], 20%. For the same compound, the pest or weed control at 250 g/ha was found to be 20% in [7], 0% in the assay on Avena fatua (AVEFA) [8], 100% in [9] and 90% in the assay with Setaria faberi (SETFA) [10].
Turning to `CCc1ccc(-c2c(Cl)cc(Cl)cc2Cl)cc1C1=C(O)C(C)(C)OC(C)(C)C1=O` [Compound A-74], the pest or weed control at 250 g/ha in assay [1] was 20%; in assay [2] it was 10%; with Avena fatua (AVEFA) [3], 0%; in assay [4], 80%; in the assay on Setaria faberi (SETFA) [5], 50%; in assay [6], 0%. For the same compound, the pest or weed control at 250 g/ha in assay [7] was determined as 70%; in the assay on Avena fatua (AVEFA) [8], 0%; in assay [9], 90%; in the assay with Setaria faberi (SETFA) [10] it was 90%.
With `CCc1ccc(-c2ccc(Cl)cc2)cc1C1=C(O)[C@@]2(CC)C=C[C@H](O2)C1=O` [Compound A-63], the pest or weed control at 250 g/ha in assay [1] came to 0%; in [2], 0%; with Avena fatua (AVEFA) [3], 0%; in assay [4], 0%; in the assay with Setaria faberi (SETFA) [5] it was 30%; in assay [6], 90%. In addition, the pest or weed control at 250 g/ha in assay [7] came out at 0%; in the assay with Avena fatua (AVEFA) [8], 60%; in assay [9], 100%; in the assay with Setaria faberi (SETFA) [10], 100%.
Regarding `Cc1ccc(-c2ccc(Cl)c(F)c2)cc1C1=C(O)C(C)(C)SC(C)(C)C1=O` (single isomer, unassigned) [Compound C-9], the pest or weed control at 250 g/ha in assay [1] was determined as 0%; in [2] it was 0%; in the assay with Avena fatua (AVEFA) [3] it was 0%; in [4], 0%; in the assay on Setaria faberi (SETFA) [5], 0%; in assay [6] it was 50%. In addition, the pest or weed control at 250 g/ha in assay [7] stood at 0%; in the assay with Avena fatua (AVEFA) [8], 40%; in [9] it was 70%; with Setaria faberi (SETFA) [10], 10%.
Turning to `CCc1ccc(-c2cc(Cl)c(Cl)cc2Cl)cc1C1=C(O)C(C)(C)OC(C)(C)C1=O` [Compound A-144], the pest or weed control at 250 g/ha in [1] was 100%; in assay [2], 30%; in the assay with Avena fatua (AVEFA) [3], 80%; in assay [4], 90%; in the assay on Setaria faberi (SETFA) [5], 100%; in [6], 100%. Also, the pest or weed control at 250 g/ha in [7] was found to be 40%; in the assay on Avena fatua (AVEFA) [8] it was 100%; in assay [9], 100%; in the assay on Setaria faberi (SETFA) [10], 100%.
Turning to `CCc1ccc(-c2ccc(Cl)cc2)cc1C1=C(O)[C@@]2(C)CC[C@](C)(O2)C1=O` (single isomer, unassigned) [Compound A-83], the pest or weed control at 250 g/ha in [1] stood at 50%; in [2] it was 0%; in the assay with Avena fatua (AVEFA) [3], 40%; in assay [4], 90%; in the assay on Setaria faberi (SETFA) [5] it was 100%; in [6] it was 80%. The pest or weed control at 250 g/ha in assay [7] is 0%; in the assay with Avena fatua (AVEFA) [8], 80%; in assay [9] it was 100%; in the assay with Setaria faberi (SETFA) [10], 100%.
